Results taken from patent US10954252B1, “Inhibitors of human immunodeficiency virus replication” (ViiV HEALTHCARE UK (NO.5) LIMITED, priority 2017, dated 2021).

Legend:
[1] = tested on: recombinant NL4-3 virus (nef section replaced with Renilla luciferase gene) in MT-2 cells; experiment: HIV cell culture assay (antiviral activity, luciferase readout); assay type: cell-based; settings: MT-2 cells infected for 4-5 days with recombinant NL4-3 luciferase virus
Experimental: HIV cell culture assay—MT-2 cells, 293T cells and the proviral DNA clone of NL4-3 virus were obtained from the NIH AIDS Research and Reference Reagent Program. MT-2 cells were propagated in RPMI 1640 media supplemented with 10% heat inactivated fetal bovine serum (FBS), 100 μg/ml penicillin G and up to 100 units/mL streptomycin. The 293T cells were propagated in DMEM media supplemented with 10% heat inactivated FBS, 100 μg/mL penicillin G and 100 μg/mL streptomycin. A recombinant NL4-3 proviral clone, in which a section of the nef gene was replaced with the Renilla luciferase gene, was used to make the reference virus used in these studies. The recombinant virus was prepared through transfection of the recombinant NL4-3 proviral clone into 293T cells using Transit-293 Transfection Reagent from Mirus Bio LLC (Madison, Wis.). Supernatent was harvested after 2-3 days and the amount of virus present was titered in MT-2 cells using luciferase enzyme activity as a marker by measuring luciferase enzyme activity. Luciferase was quantitated using the EnduRen Live Cell Substrate from Promega (Madison, Wis.). Antiviral activities of compounds toward the recombinant virus were quantified by measuring luciferase activity in MT-2 cells infected for 4-5 days with the recombinant virus in the presence of serial dilutions of the compound.
The 50% effective concentration (ECs) was calculated by using the exponential form of the median effect equation where (Fa)=1/[1+(ED50/drug conc.)^m] (Johnson Va., Byington RT. Infectivity Assay. In Techniques in HIV Research. ed. Aldovini A, Walker BD. 71-76. New York: Stockton Press. 1990).

[2] = Compound cytotoxicity, XTT-based colorimetric assay; assay type: cell-based; settings: human, uninfected MT2 cells
Experimental: Compound cytotoxicity and the corresponding CC50 values were determined using the same protocol as described in the antiviral assay except that uninfected cells were used. Cytotoxicity was assessed on day 4 in uninfected MT2 cells by using a XTT (2,3-bis[2-Methoxy-4-nitro-5-sulfophenyl]-2H-tetrazolium-5-carboxyanilide inner salt)-based colorimetric assay (Sigma-Aldrich, St Louis, Mo.). Biological data for select compounds of the invention are contained in Table 1 and Table 1a

SMILES	EC50 ([1]; Renilla, NL43, Table 1a)	CC50 at 4 days ([2]; Table 1a, day 4, XTT)	further results
COc1ccc(-n2c([C@H](Cc3cc(F)cc(F)c3)NC(=O)Cn3nc(C(F)F)c4c3C(F)(F)[C@@H]3C[C@H]43)nc3ncccc3c2=O)cn1 [Example 29, 2-[(2S,4R)-9-(difluoromethyl)-5,5-difluoro-7,8-diazatricyclo[4.3.0.0^2,4]nona-1(6),8-dien-7-yl]-N-[(1S)-2-(3,5-difluorophenyl)-1-[3-(6-methoxypyridin-3-yl)-4-oxo-3H,4H-pyrido[2,3-d]pyrimidin-2-yl]ethyl]acetamide]	26 nM	> 10000 nM	–
Cn1nc(NS(C)(=O)=O)c2c(Cl)ccc(-c3cc4scnc4nc3C(Cc3cc(F)cc(F)c3)NC(=O)Cn3nc(C(F)F)c4c3C(F)(F)[C@@H]3C[C@H]43)c21 (single isomer, unassigned) [Example 1.4]	–	–	EC50 ([1]; Table 1): 0.1 nM; CC50 at 4 days ([2]; Table 1, day 4, XTT): > 10000 nM
Cc1ccn(CC(=O)N[C@@H](Cc2cc(F)cc(F)c2)c2nc3ncccc3c(=O)n2-c2ccc(Cl)c3c(NS(C)(=O)=O)nn(C)c23)n1 (single isomer, unassigned) [Example 47.1]	–	> 1000 nM	EC50 ([1]; Table 1a): 227 nM
CC(C)(C)c1ccc2c(=O)n(-c3ccc(Cl)c4c(NS(C)(=O)=O)nn(CC(F)F)c34)c([C@H](Cc3cc(F)cc(F)c3)NC(=O)Cn3nc(C(F)F)c4c3C(F)(F)[C@@H]3C[C@H]43)nc2c1 [Example 217, N—((S)-1-(7-(tert-Butyl)-3-(4-chloro-1-(2,2-difluoroethyl)-3-(methylsulfonamido)-1H-indazol-7-yl)-4-oxo-3,4-dihydroquinazolin-2-yl)-2-(3,5-difluorophenyl)ethyl)-2-((3bS,4aR)-3-(difluoromethyl)-5,5-difluoro-3b,4,4a,5-tetrahydro-1H-cyclopropa[3,4]cyclopenta[1,2c]pyrazol-1-yl)acetamide]	0.25 nM	> 1000 nM	–
CN(C)S(=O)(=O)c1ccc(-n2c([C@H](Cc3cc(F)cc(F)c3)NC(=O)Cn3nc(C(F)F)c4c3C(F)(F)[C@@H]3C[C@H]43)nc3ncccc3c2=O)cc1 [Example 32, 2-[(2S,4R)-9-(difluoromethyl)-5,5-difluoro-7,8-diazatricyclo[4.3.0.0^2,4]nona-1(6),8-dien-7-yl]-N-[(1S)-2-(3,5-difluorophenyl)-1-{3-[4-(dimethylsulfamoyl)phenyl]-4-oxo-3H,4H-pyrido[2,3-d]pyrimidin-2-yl}ethyl]acetamide]	1.1 nM	> 10000 nM	–
COc1cccc2c(=O)n(-c3ccc(Cl)c4c(NS(C)(=O)=O)nn(C)c34)c([C@H](Cc3cc(F)cc(F)c3)NC(=O)Cn3nc(C(F)F)c4c3C(F)(F)[C@@H]3C[C@H]43)nc12 (single isomer, unassigned) [Example 103]	–	> 1000 nM	–
Cn1nc(NS(C)(=O)=O)c2c(Cl)ccc(-n3c([C@H](Cc4cc(F)cc(F)c4)NC(=O)Cn4ccc(C5CC5)n4)nc4cc(C(F)(F)F)ccc4c3=O)c21 (single isomer, unassigned) [Example 150]	–	> 1000 nM	–
COc1cc(F)c2c(=O)n(-c3ccc(Cl)c4c(NS(C)(=O)=O)nn(C)c34)c([C@H](Cc3cc(F)cc(F)c3)NC(=O)Cn3ccc(C4CC4)n3)nc2c1 [Example 188, (S)—N-(1-(3-(4-chloro-1-methyl-3-(methylsulfonamido)-1H-indazol-7-yl)-5-fluoro-7-methoxy-4-oxo-3,4-dihydroquinazolin-2-yl)-2-(3,5-difluorophenyl)ethyl)-2-(3-cyclopropyl-1H-pyrazol-1-yl)acetamide]	–	> 1000 nM	–
Cn1nc(NS(C)(=O)=O)c2c(Cl)ccc(-n3c([C@H](Cc4cc(F)cc(F)c4)NC(=O)Cn4ccc(C5CC5)n4)nc4cc(CS(C)(=O)=O)ccc4c3=O)c21 [Example 205, (S)—N-(1-(3-(4-chloro-1-methyl-3-(methylsulfonamido)-1H-indazol-7-yl)-7-((methylsulfonyl)methyl)-4-oxo-3,4-dihydroquinazolin-2-yl)-2-(3,5-difluorophenyl)ethyl)-2-(3-cyclopropyl-1H-pyrazol-1-yl)acetamide]	–	> 1000 nM	–
